According to PubChem BioAssay (NCI):
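Briefly, cells in 96-well plates were exposed to five compound concentrations for 48 h, and endpoints were estimated by linear interpolation. Here, GI50 denotes the concentration required for 50% inhibition of growth. The concentration for full growth arrest is given as TGI.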

What was measured:
Assay in all cases: DTP human tumour cell line panel, 48 h
RPMI-8226 leukemia = tested on: RPMI-8226 leukemia
IGROV1 ovarian = tested on: IGROV1 ovarian
NCI-H226 lung = tested on: NCI-H226 lung
KM12 colon = tested on: KM12 colon
NCI-H522 lung = tested on: NCI-H522 lung
UACC-62 melanoma = tested on: UACC-62 melanoma
SNB-75 CNS = tested on: SNB-75 CNS
NCI-H23 lung = tested on: NCI-H23 lung
CCRF-CEM leukemia = tested on: CCRF-CEM leukemia
UO-31 renal = tested on: UO-31 renal
LOX IMVI melanoma = tested on: LOX IMVI melanoma
SF-295 CNS = tested on: SF-295 CNS
K-562 leukemia = tested on: K-562 leukemia
HOP-62 NSCLC = tested on: HOP-62 NSCLC
PC-3 prostate = tested on: PC-3 prostate
HCT-15 colon = tested on: HCT-15 colon
MOLT-4 leukemia = tested on: MOLT-4 leukemia
OVCAR-8 ovarian = tested on: OVCAR-8 ovarian
UACC-257 melanoma = tested on: UACC-257 melanoma
CAKI-1 renal = tested on: CAKI-1 renal
OVCAR-4 ovarian = tested on: OVCAR-4 ovarian
NCI/ADR-RES ovarian = tested on: NCI/ADR-RES ovarian
HS 578T breast = tested on: HS 578T breast
HL-60(TB) leukemia = tested on: HL-60(TB) leukemia
SW-620 colon = tested on: SW-620 colon
MCF7 breast = tested on: MCF7 breast
MDA-MB-435 = tested on: MDA-MB-435
SK-OV-3 ovarian = tested on: SK-OV-3 ovarian
HCC-2998 colon = tested on: HCC-2998 colon
SN12C renal = tested on: SN12C renal
SK-MEL-5 melanoma = tested on: SK-MEL-5 melanoma
SNB-19 CNS = tested on: SNB-19 CNS
ACHN renal = tested on: ACHN renal
SF-268 CNS = tested on: SF-268 CNS
A549 NSCLC = tested on: A549 NSCLC
OVCAR-5 ovarian = tested on: OVCAR-5 ovarian
RXF 393 renal = tested on: RXF 393 renal
EKVX NSCLC = tested on: EKVX NSCLC
T-47D breast = tested on: T-47D breast
SK-MEL-28 melanoma = tested on: SK-MEL-28 melanoma
TK-10 renal = tested on: TK-10 renal
U251 CNS = tested on: U251 CNS
HOP-92 NSCLC = tested on: HOP-92 NSCLC
M14 melanoma = tested on: M14 melanoma
BT-549 breast = tested on: BT-549 breast
MDA-MB-231 breast = tested on: MDA-MB-231 breast
786-0 renal = tested on: 786-0 renal
COLO 205 colon = tested on: COLO 205 colon
SF-539 CNS = tested on: SF-539 CNS
HT29 colon = tested on: HT29 colon
HCT-116 colon = tested on: HCT-116 colon
SK-MEL-2 melanoma = tested on: SK-MEL-2 melanoma
DU-145 prostate = tested on: DU-145 prostate
SR leukemia = tested on: SR leukemia
MALME-3M melanoma = tested on: MALME-3M melanoma
A498 renal = tested on: A498 renal
NCI-H460 lung = tested on: NCI-H460 lung

O=C1CCC(N2C(=O)c3ccc(NS(=O)(=O)c4ccccc4OC(F)(F)F)cc3C2=O)C(=O)N1 (stereo unspecified)
GI50 (RPMI-8226 leukemia): 7.63 µM
TGI (RPMI-8226 leukemia): > 100 µM
GI50 (IGROV1 ovarian): 0.465 µM
TGI (IGROV1 ovarian): > 100 µM
GI50 (NCI-H226 lung): 1.12 µM
TGI (NCI-H226 lung): > 100 µM
GI50 (KM12 colon): 1.97 µM
TGI (KM12 colon): > 100 µM
TGI (NCI-H522 lung): > 100 µM
GI50 (UACC-62 melanoma): 16.1 µM
TGI (UACC-62 melanoma): > 100 µM
GI50 (SNB-75 CNS): 0.11 µM
TGI (SNB-75 CNS): 2.68 µM
GI50 (NCI-H23 lung): > 100 µM
TGI (NCI-H23 lung): > 100 µM
GI50 (CCRF-CEM leukemia): 0.0312 µM
GI50 (UO-31 renal): 0.306 µM
TGI (UO-31 renal): > 29.1 µM
GI50 (LOX IMVI melanoma): > 100 µM
TGI (LOX IMVI melanoma): > 100 µM
GI50 (SF-295 CNS): 4.38 µM
TGI (SF-295 CNS): > 100 µM
GI50 (K-562 leukemia): 3.01 µM
TGI (K-562 leukemia): > 100 µM
GI50 (HOP-62 NSCLC): 0.187 µM
TGI (HOP-62 NSCLC): 2.46 µM
GI50 (PC-3 prostate): 0.455 µM
TGI (PC-3 prostate): > 27.8 µM
GI50 (HCT-15 colon): 0.1 µM
TGI (HCT-15 colon): > 68 µM
GI50 (MOLT-4 leukemia): 0.0314 µM
TGI (MOLT-4 leukemia): 0.341 µM
GI50 (OVCAR-8 ovarian): 0.159 µM
TGI (OVCAR-8 ovarian): > 100 µM
GI50 (UACC-257 melanoma): > 100 µM
TGI (UACC-257 melanoma): > 100 µM
GI50 (CAKI-1 renal): 0.456 µM
TGI (CAKI-1 renal): > 100 µM
GI50 (OVCAR-4 ovarian): 2.61 µM
TGI (OVCAR-4 ovarian): > 100 µM
GI50 (NCI/ADR-RES ovarian): 0.7 µM
TGI (NCI/ADR-RES ovarian): > 100 µM
GI50 (HS 578T breast): 0.0582 µM
TGI (HS 578T breast): 1.43 µM
GI50 (HL-60(TB) leukemia): 0.0279 µM
TGI (HL-60(TB) leukemia): 0.35 µM
GI50 (SW-620 colon): 0.312 µM
TGI (SW-620 colon): > 100 µM
GI50 (MCF7 breast): 1.68 µM
TGI (MCF7 breast): > 100 µM
GI50 (MDA-MB-435): 6.34 µM
TGI (MDA-MB-435): > 100 µM
GI50 (SK-OV-3 ovarian): 2.6 µM
TGI (SK-OV-3 ovarian): > 100 µM
GI50 (HCC-2998 colon): 0.729 µM
TGI (HCC-2998 colon): > 70.8 µM
GI50 (SN12C renal): 1.14 µM
TGI (SN12C renal): > 100 µM
GI50 (SK-MEL-5 melanoma): 2.56 µM
TGI (SK-MEL-5 melanoma): > 27 µM
GI50 (SNB-19 CNS): 0.843 µM
TGI (SNB-19 CNS): > 100 µM
GI50 (ACHN renal): 8.7 µM
TGI (ACHN renal): > 100 µM
GI50 (SF-268 CNS): 0.911 µM
TGI (SF-268 CNS): > 100 µM
GI50 (A549 NSCLC): 7 µM
TGI (A549 NSCLC): > 100 µM
GI50 (OVCAR-5 ovarian): 12.6 µM
TGI (OVCAR-5 ovarian): > 100 µM
GI50 (RXF 393 renal): 0.609 µM
TGI (RXF 393 renal): 7.95 µM
GI50 (EKVX NSCLC): > 100 µM
TGI (EKVX NSCLC): > 100 µM
GI50 (T-47D breast): 0.165 µM
GI50 (SK-MEL-28 melanoma): 7.37 µM
TGI (SK-MEL-28 melanoma): > 100 µM
GI50 (TK-10 renal): 2.72 µM
TGI (TK-10 renal): > 100 µM
GI50 (U251 CNS): > 100 µM
TGI (U251 CNS): > 100 µM
GI50 (HOP-92 NSCLC): 0.022 µM
TGI (HOP-92 NSCLC): 0.161 µM
GI50 (M14 melanoma): 1.59 µM
TGI (M14 melanoma): > 100 µM
GI50 (BT-549 breast): 0.12 µM
TGI (BT-549 breast): 1.61 µM
GI50 (MDA-MB-231 breast): 0.082 µM
TGI (MDA-MB-231 breast): 2.26 µM
GI50 (786-0 renal): 0.668 µM
TGI (786-0 renal): > 100 µM
GI50 (COLO 205 colon): 0.857 µM
TGI (COLO 205 colon): > 27.2 µM
GI50 (SF-539 CNS): > 50.7 µM
TGI (SF-539 CNS): > 100 µM
GI50 (HT29 colon): 7.7 µM
TGI (HT29 colon): > 100 µM
GI50 (HCT-116 colon): > 100 µM
TGI (HCT-116 colon): > 100 µM
GI50 (SK-MEL-2 melanoma): 1.67 µM
TGI (SK-MEL-2 melanoma): 38.4 µM
GI50 (DU-145 prostate): > 100 µM
TGI (DU-145 prostate): > 100 µM
GI50 (SR leukemia): 10.8 µM
TGI (SR leukemia): > 100 µM
GI50 (MALME-3M melanoma): 0.147 µM
TGI (MALME-3M melanoma): 3.49 µM
GI50 (A498 renal): 0.266 µM
TGI (A498 renal): 1.75 µM
GI50 (NCI-H460 lung): > 100 µM
TGI (NCI-H460 lung): > 100 µM
